EC50 data for eleven molecules are collected here from patent publication US20250066379A1, “ANTIMALARIAL AGENTS” (Merck Sharp & Dohme LLC, priority 2021, published 2025).

In general, EC50 refers to the concentration at which the effect is half-maximal. The low end stands for higher potency in that assay, the high end for lower potency in that assay.

This assay concerns parasite. Description: Parasite LDH growth assay (Parasite Assay). Conditions: ring stage parasites, 72 hours growth at 37° C., LDH readout of parasite growth. Format: cell-based, Plasmodium falciparum. On the procedure:
Assessing Antiparasite Potency in a Parasite LDH Growth Assay (Parasite Assay) The parasite stock was maintained at 4% haematocrit in RPMI-Hepes media 30 buffered with sodium bicarbonate and supplemented with 5% heat inactivated human serum and 0.5% albumax. Approximately 42 hours prior to the potency assay being set up, parasites were synchronized with 5% sorbitol to select for ring stage parasites. On the day of assay set up, a blood smear of the parasite culture was Giemsa stained and counted. The parasitemia was 35 adjusted to 0.7% rings and the haematocrit was diluted to 2% in RPMI-Hepes media buffered with sodium bicarbonate and supplemented with 5% heat inactivated human serum and 0.5% albumax. 30 ul of diluted parasites are then added into 10 μl of media+compound in pre-prepared Greiner TC assay plates. Parasite assay plates were placed in gassed humidified boxes in single layer and allowed to incubate at 37° C. for 72 hours. After 72 hours growth, assay plates are sealed with parafilm and frozen flat, in single file at −80° C. overnight. On the following day, assay plates were allowed to thaw at room temperature for 4 hours to which an LDH assay was performed to measure parasite growth.

The molecule `CC[C@@]12CCCCCc3ccc4c(c3)[C@H](CC(C)(C)O4)NC(=O)c3ccc4c(c3)[C@@H](CCO4)N(C(=N)N1)C(=O)C2` [Example 9, (1R,5S,18S)-5-ethyl-3-imino-16,16-dimethyl-15,25-dioxa-2,4,19-triazahexacyclo[19. 6.2.22,5.211,14.013, 18.024,28] tritriaconta-11,13,21,23,28,30-hexaene-20,33-dione] had an EC50 (Plasmodium falciparum, 72 h) of 76.5 nM.
`CC[C@]12CCC/C=C\c3ccc4c(c3)[C@@H](NC(=O)c3ccc5c(c3)[C@@H](CCO5)N(C(=N)N1)C(=O)C2)[C@H](O)C4` [Example 6, (1R,5R,9Z,16R, 17R)-5-ethyl-16-hydroxy-3-imino-24-oxa-2,4,18-triazahexacyclo[18. 6.2.22,5.211,14.013, 17.023,27] dotriaconta-9,11,13,20,22,27, 29-heptaene-19,32-dione]: under “Plasmodium falciparum, 72 h”, the EC50 is 2.8 nM.
`CC[C@]12CCCCCCc3ccc4c(c3)OC(C)(C)C[C@@H]4NC(=O)c3ccc4c(c3)[C@@H](CCO4)N(C(=N)N1)C(=O)C2` [Example 14, (1R,5R,20S)-5-ethyl-3-imino-18,18-dimethyl-17,27-dioxa-2,4,21-triazahexacyclo[21. 6.2.22,5.112,16.015, 20.026,30] tetratriaconta-12(32),13,15,23, 25,30-hexaene-22,34-dione] had an EC50 (Plasmodium falciparum, 72 h) of 34 nM.
Molecule `COC[C@@H]1COc2ccc3cc2[C@@H]1N1C(=N)NC(C)(CCCCCc2ccc4c(c2)[C@H](CC(C)(C)O4)NC3=O)CC1=O` (mixture of isomers) [Example 25B, rac-(1R,18S,27R)-3-imino-27-(methoxymethyl)-5,16,16-trimethyl-15,25-dioxa-2,4,19-triazahexacyclo[19. 6.2.22,5.211,14.013, 18.024,28] tritriaconta-11,13,21,23,28,30-hexaene-20,33-dione] came in with an EC50 of 0.7 nM.
For the setting “Plasmodium falciparum, 72 h”, `CC[C@@]12CCCCCCc3ccc4c(c3)OC(C)(C)C[C@@H]4NC(=O)c3ccc4c(c3)[C@@H](CCO4)N(C(=N)N1)C(=O)C2` [Example 13, (1R,5S,20S)-5-ethyl-3-imino-18,18-dimethyl-17,27-dioxa-2,4,21-triazahexacyclo[21. 6.2.22,5.112,16.015, 20.026,30] tetratriaconta-12(32),13,15,23,25, 30-hexaene-22,34-dione] had an EC50 of 22 nM. In other words, the double-digit nanomolar range.
The same measure, in the same setting: next, `CC[C@]12CCCCCc3ccc4c(c3)[C@H](CC(C)(C)O4)NC(=O)c3ccc4c(c3)[C@@H](CCO4)N(C(=N)N1)C(=O)C2` [Example 8, (1R,5R,18S)-5-ethyl-3-imino-16,16-dimethyl-15,25-dioxa-2,4,19-triazahexacyclo[19. 6.2.22,5.211,14.013, 18.024,28] tritriaconta-11,13,21,23,28,30-hexaene-20,33-dione]: 1.1 nM; `CC[C@]12CCCCOc3ccc4c(c3)[C@H](CC(C)(C)O4)NC(=O)c3ccc4c(c3)[C@@H](CCO4)N(C(=N)N1)C(=O)C2` [Example 4, (1R,5R,18S)-5-ethyl-3-imino-16,16-dimethyl-10,15,25-trioxa-2,4,19-triazahexacyclo[19.6.2.22,5.211,14.013,18.024,28]tritriaconta-11,13,21,23,28,30-hexaene-20,33-dione]: 2 nM.
`CCC12CC/C=C/c3ccc4c(c3)[C@H](CC(C)(C)O4)NC(=O)c3ccc4c(c3)[C@@H](CCO4)N(C(=N)N1)C(=O)C2` (mixture of isomers) [Example 20, rac-(1R,8E,17S)-5-ethyl-3-imino-15,15-dimethyl-14,24-dioxa-2,4,18-triazahexacyclo[18. 6.2.22,5.210,13.012, 17.023,27] dotriaconta-8,10,12,20,22,27,29-heptaene-19,32-dione]: the EC50 (Plasmodium falciparum, 72 h) came to 3.6 nM. This EC50 is about 1.8-fold higher than that of the molecule before.
`COC[C@@H]1COc2ccc3cc2[C@@H]1N1C(=N)NC(C)(CCCCCc2ccc4c(c2)[C@H](CC(C)(C)O4)NC3=O)CC1=O` (mixture of isomers) [Example 25A, rac-(1R,18S,27R)-3-imino-27-(methoxymethyl)-5,16,16-trimethyl-15,25-dioxa-2,4,19-triazahexacyclo[19. 6.2.22,5.211,14.013, 18.024,28] tritriaconta-11,13,21,23,28,30-hexaene-20,33-dione] yielded an EC50 of 23 nM.
Consider `CC[C@]12CCCCCc3ccc4c(c3)[C@@H](NC(=O)c3ccc5c(c3)[C@@H](CCO5)N(C(=N)N1)C(=O)C2)[C@H](O)C4` [Example 2, (1R,5R,16R,17R)-5-ethyl-16-hydroxy-3-imino-24-oxa-2,4,18-triazahexacyclo[18.6.2.22,5.211,14.013,17.023,27]dotriaconta-11,13,20,22,27,29-hexaene-19,32-dione], for which the midpoint of the response (Plasmodium falciparum, 72 h), the EC50, lay at 11 nM.
As for `CC[C@]12CCCCCc3ccc4c(c3)OC(C)(C)C[C@@H]4NC(=O)c3ccc4c(c3)[C@@H](CCO4)N(C(=N)N1)C(=O)C2` (racemic) [Example 22, rac-(1R,5R,19S)-5-ethyl-3-imino-17,17-dimethyl-16,26-dioxa-2,4,20-triazahexacyclo[20. 6.2.22,5.111,15.014, 19.025,29] tritriaconta-11(31),12,14,22,24, 29-hexaene-21,33-dione], where the note is “Plasmodium falciparum, 72 h”, the response was half-maximal at 57.4 nM (EC50).
